# From patent US20250127772A1, “SPECIFIC TETRADENTATE COPPER CHELATORS FOR THE TREATMENT OF WILSON'S DISEASE” (GUANGDONG UNIVERSITY OF TECHNOLOGY, priority 2023, published 2025)
# Where “and” joins values, the source holds several entries; their conditions need not be identical. Identical values can stand only once. Like-named read-outs stand apart in the source and are kept apart here.
# Columns and labels:
# [1] = test system: homozygous toxic-milk mouse model (TX model); assay type: in vivo; conditions: for Cu content Brain / Cu content Feces / Cu content Kidney / Cu content Liver / Cu content Serum / Cu content Urine: mean of 6 mice ± SEM
# Excerpt: The selected drug-candidate TDMQ20 has been evaluated on the homozygous toxic-milk mouse model (TX model), a regular murine model of Wilson disease, suitable for evaluation of drug-candidates (for a review, see E. Reed et al., J. Neurochem., 146, 356-373, 2018). TX mice are bearing a naturally occurring point mutation on ATP7B resulting in a methionine changed for a valine, that causes the loss of copper transportation by this protein. C57BL/6 mice have no mutation on ATP7B and were used as control mice in the evaluation of TDMQ20. TX mice were provided by Sun Yat-Sen University (Guangzhou) and C57BL/6 mice by the Guangdong experimental animal center (Guangzhou) and all experiments were performed according to protocols approved by the Welfare Laboratory Animals Committee of the Guangdong University of Technology (approval n° GDUTXS2022083 dated on 3 Aug. 2022), in the framework of the 3 Rs principle.
# […] TX mice (WD) and 8-week-old C57BL/6 mice (Control) were used. TX mice (as WD, TDMQ-L, TDMQ-M, TDMQ-H groups, respectively) received the drug TDMQ20 by intragastric gavage twice a day for 14 consecutive days (at 0, 12.5, 25.0, 50.0 mg/kg in NaCl 0.9%). On the same schedule, C57BL/6 mice (as control group) received NaCl 0.9%. Treatment of WD mice with DPA (200 mg/kg) was used as comparison (DPA group). Six groups of 6 mice were used.
# At the end of the treatment period, mice (10-week old) were placed in metabolic cages for 12 h in order to collect urine and feces. At the end of this 12 h-period, mice were anesthetized using 2.5% Avertin diluted in 0.9% NaCl at a dose of […] body weight and sacrificed. Cardiac blood was collected and left at room temperature for 30 minutes before centrifugation at 4° C. at 3000 r/min for 10 minutes to obtain serum samples. During this 30-min period, liver, kidney, brain and serum were also collected. Copper concentrations in urine and feces, serum, liver, kidney and brain were determined by inductively coupled plasma mass spectrometry (ICP-MS). Data analysis was carried out using SPSS Statistics software (version 26). Data are provided as mean values±standard error of the mean (SEM). Statistical analyses were performed using one-way ANOVA for liver, feces and urine, and by non-parametric test for serum, kidney, and brain. Differences with p>0.05 were considered as no significance (ns), * p<0.05, ** p<0.01, and *** p<0.001, n=6. Graph presentations were drawn with Prism GraphPad 8.0.2.
# ceruloplasmin (CP) = assay: Serum ceruloplasmin by TMT LC-MS/MS in treated TX mice; assay type: in vivo, mouse; conditions: for CP level compared with control mice: serum of TX mice
# Protocol: (§1) In order to confirm the positive role of TDMQ20 in the treatment of TX mice, we performed proteomic experiments. Samples from three mice of each group were depicted in Table 1, The samples were treated with TMT (Tandem Mass Tag) and detected by quantitative LC-MS/MS, then the data were analyzed with ProteomeDiscoverer 2.4.1.15 (ThermoFisher Scientific). Confidence proteins were screened according to the criteria of Sequest program score greater than 0 and number of unique peptides greater than or equal to 1, and blank values were removed.
# The concentration of ceruloplasmin (CP), that contains the most part of blood copper, was measured by TMT LC-MS/MS in the serum of WD mice. […] The CP level was equal (25 mg/kg) or higher (50 mg/kg) than that observed in control mice. Since the level of CP is considered as a significant parameter in the clinical control of human Wilson's disease, the reversal of the CP impairment upon treatment by TDMQ20 confirms that this drug has a very good profile as drug-candidate for the treatment of Wilson's disease.
# serum DEPs = assay: Serum differentially expressed proteins (TMT LC-MS/MS) in treated TX mice; assay type: in vivo, mouse
# Protocol: as §1
# Other differentially expressed proteins (DEPs) were screened at p<0.05 in the WD mouse group compared to the control group. […] Results are reported in Table 3 and 4 for hepatic and serum proteins, respectively.
# [2] = TX mice, TDMQ20-H 50 mg/kg/day gavage 14 days
# [3] = TX mice, TDMQ20-L 12.5 mg/kg/day gavage 14 days
# [4] = TX mice, TDMQ20-M 25 mg/kg/day gavage 14 days
# [5] = serum, 25 mg/kg/day, DEP down-regulated in WD
# [6] = serum, 25 mg/kg/day, DEP up-regulated in WD
# [7] = serum, 50 mg/kg/day, DEP down-regulated in WD
# [8] = serum, 50 mg/kg/day, DEP up-regulated in WD
compound,measurement,setting,value
CN(C)CCNCCc1ccc2c(Cl)cc(Cl)c(N)c2n1 [TDMQ20],copper content in feces versus untreated WD mice or DPA 200 mg/kg/day,"[1]; TX mice, TDMQ20 25 or 50 mg/kg/day",significantly higher
same,Cu content Brain,[1]; [2],3.5 ± 0.1 mg/kg
same,Cu content Feces,[1]; [2],142 ± 10 mg/kg
same,Cu content Kidney,[1]; [2],11.0 ± 1.7 mg/kg
same,Cu content Liver,[1]; [2],200 ± 14 mg/kg
same,Cu content Serum,[1]; [2],3.5 ± 0.6 mg/L
same,Cu content Urine,[1]; [2],0.98 ± 0.05 mg/L
same,Cu content Brain,[1]; [3],3.2 ± 0.2 mg/kg
same,Cu content Feces,[1]; [3],88 ± 3 mg/kg
same,Cu content Kidney,[1]; [3],5.5 ± 0.3 mg/kg
same,Cu content Liver,[1]; [3],290 ± 4 mg/kg
same,Cu content Serum,[1]; [3],0.63 ± 0.04 mg/L
same,Cu content Urine,[1]; [3],0.76 ± 0.13 mg/L
same,Cu content Brain,[1]; [4],3.3 ± 0.2 mg/kg
same,Cu content Feces,[1]; [4],129 ± 4 mg/kg
same,Cu content Kidney,[1]; [4],5.0 ± 0.4 mg/kg
same,Cu content Liver,[1]; [4],256 mg/kg and 256 ± 8 mg/kg
same,Cu content Serum,[1]; [4],0.83 ± 0.12 mg/L
same,Cu content Urine,[1]; [4],0.67 ± 0.10 mg/L
same,"copper concentration in urine, concentration ratio TDMQ20-H/WD","[1]; TX mice, TDMQ20 at 50 mg/kg, factor versus WD mice, 50 mg/kg",1.8 and 1.75
same,"concentration of copper in kidney, factor versus WD mice","[1]; TX mice, TDMQ20 at 50 mg/kg, ratio TDMQ20-H/WD",1.64
same,copper concentration in the brain versus WD mice,"[1]; mouse, in vivo",no increase of copper concentration
same,level of CP compared to WD mice,ceruloplasmin (CP); TDMQ20 at 25 or 50 mg/kg,significantly increased
same,CP level compared with control mice,ceruloplasmin (CP); TDMQ20 25 mg/kg,equal
same,CP level compared with control mice,ceruloplasmin (CP); TDMQ20 50 mg/kg,higher
same,serum DEPs TDMQ20-H/control ratio,serum DEPs; TDMQ20 50 mg/kg,~1
same,serum DEPs after treatment,serum DEPs; TDMQ20 at 25 or 50 mg/kg,reversed to normal values
same,"TDMQ20-M/ctrl fold change: Alpha-aminoadipic semialdehyde synthase, mitochondrial (Aass)",serum DEPs; [5],0.97
same,TDMQ20-M/ctrl fold change: Cystatin-C (Cst3),serum DEPs; [5],0.88
same,TDMQ20-M/ctrl fold change: Elongation factor 1-delta (Eef1d),serum DEPs; [5],0.85
same,"TDMQ20-M/ctrl fold change: GrpE protein homolog 1, mitochondrial (Grpel1)",serum DEPs; [5],0.95
same,TDMQ20-M/ctrl fold change: Transgelin-2 (Tagln2),serum DEPs; [5],0.87
same,TDMQ20-M/ctrl fold change: Ig heavy chain V region 1-72 (Ighv1-72),serum DEPs; [6],1.08
same,TDMQ20-M/ctrl fold change: Regucalcin (Rgn),serum DEPs; [6],1.06
same,TDMQ20-M/ctrl fold change: Ribonuclease 4 (Rnase4),serum DEPs; [6],1.10
same,TDMQ20-M/ctrl fold change: Triokinase/FMN cyclase (Tkfc),serum DEPs; [6],1.07
same,TDMQ20-M/ctrl fold change: Tropomyosin alpha-3 chain (Tpm3),serum DEPs; [6],1.11
same,"TDMQ20-H/ctrl fold change: Alpha-aminoadipic semialdehyde synthase, mitochondrial (Aass)",serum DEPs; [7],0.93
same,TDMQ20-H/ctrl fold change: Cystatin-C (Cst3),serum DEPs; [7],0.92
same,TDMQ20-H/ctrl fold change: Elongation factor 1-delta (Eef1d),serum DEPs; [7],0.88
same,"TDMQ20-H/ctrl fold change: GrpE protein homolog 1, mitochondrial (Grpel1)",serum DEPs; [7],1.04
same,TDMQ20-H/ctrl fold change: Transgelin-2 (Tagln2),serum DEPs; [7],0.91
same,TDMQ20-H/ctrl fold change: Ig heavy chain V region 1-72 (Ighv1-72),serum DEPs; [8],1.15
same,TDMQ20-H/ctrl fold change: Regucalcin (Rgn),serum DEPs; [8],0.88
same,TDMQ20-H/ctrl fold change: Ribonuclease 4 (Rnase4),serum DEPs; [8],1.03
same,TDMQ20-H/ctrl fold change: Triokinase/FMN cyclase (Tkfc),serum DEPs; [8],0.95
same,TDMQ20-H/ctrl fold change: Tropomyosin alpha-3 chain (Tpm3),serum DEPs; [8],0.95
